Compound	melting point
CCCC(CCC)c1ccc(N(C)Cc2ccc(-c3csc(CN(C)S(=O)(=O)CCCC(=O)[O-])n3)cc2)cc1.[Na+] [Example 1-16]	217 to 220 °C
CCCC(CCC)c1ccc(OCc2ccc(-c3csc(CN(CC(=O)O)CC(=O)Nc4ccc(N(C)C)cc4)n3)cc2)cc1 [Example 1-97]	192.5 °C
CCCC(CCC)c1ccc(CN(CC)C(=O)c2ccc(-c3csc(CN(CC(=O)O)Cc4ccccc4)n3)cc2)cc1 [Example 1-57]	59 to 65 °C
CCC(CC)c1ccc(N(Cc2ccc(-c3csc(CN(C)[C@@H](Cc4ccccc4)C(=O)O)n3)cc2)C(C)C)cc1 [Example 1-22]	80 °C
CC(C)CN(Cc1ccc(-c2csc(CN(CC(=O)O)S(=O)(=O)c3ccccc3)n2)cc1)c1ccc(C(C)(C)C)cc1 [Example 1-31]	168.5 °C
CCC(CC)N(Cc1ccc(-c2csc(COc3ccc(C(=O)O)cn3)n2)cc1)c1ccc(C(C)C)cc1 [Example 1-11]	155 to 157 °C
CCCC(CCC)c1ccc(OCc2ccc(-c3csc(CN4Cc5ccccc5C[C@H]4C(=O)O)n3)cc2)cc1 [Example 1-46]	77 to 82 °C
CCCC(CCC)c1ccc(OCc2ccc(-c3csc(CN(CC(=O)O)CC(=O)Nc4ccccn4)n3)cc2)cc1 [Example 1-100]	133.5 °C
Cc1ccc(OCc2ccc(-c3csc(CN(CC(=O)O)Cc4ccccc4)n3)cc2)c(C(C)(C)C)c1 [Example 1-43]	146 °C
CC(C)CN(Cc1ccc(-c2csc(CN(CC(=O)O)Cc3ccccc3)n2)cc1)c1ccc(Cl)cc1 [Example 1-24]	152 °C
CCCC(CC)c1ccc(N(Cc2ccc(-c3csc(CN4CCC(C(=O)O)CC4)n3)cc2)C(C)C)cc1 (stereo not drawn) [Example 1-152]	149 to 151 °C
CCCC(CCC)c1ccc(OCc2ccc(-c3csc(CN(CC(=O)O)C(=O)COc4ccc(C)cc4)n3)cc2)cc1 [Example 1-130]	170 to 172 °C
CCCC(CCC)c1ccc(OCc2ccc(-c3csc(COc4ccc(C(=O)O)cc4)n3)cc2)cc1 [Example 1-49]	199 to 202 °C
CCCC(CCC)c1ccc(N(Cc2ccc(-c3csc(CN(CC(=O)O)Cc4nc(C)c(C)s4)n3)cc2)C(C)C)cc1 [Example 1-146]	156 to 157 °C
CCC(CC)c1ccc(N(Cc2ccc(-c3csc(N(C)Cc4ccc(C(=O)O)cc4)n3)cc2)C(C)C)cc1 [Example 1-20]	150 to 153 °C
CCC(CC)N(Cc1ccc(-c2csc(COc3cncc(C(=O)O)c3)n2)cc1)c1ccc(C(C)C)cc1 [Example 1-12]	110 to 114 °C
CCCC(CCC)c1ccc(OCc2ccc(-c3csc(CN(CCN)C(=O)c4ccc(C(=O)O)cn4)n3)cc2)cc1.Cl	227 to 229 °C
CCC(CC)c1ccc(N(Cc2ccc(-c3csc(CN4Cc5ccccc5CC4C(=O)O)n3)cc2)C(C)C)cc1 (stereo not drawn) [Example 1-32]	127.5 °C
CC(C)c1ccc(Cn2c(-c3csc(CN4CCc5ccc(C(=O)O)cc5C4)n3)nc3ccc(N4CCOCC4)cc32)cc1 [Example 1-185]	141 to 143.2 °C
CN(Cc1ccc(C(=O)O)cc1)c1nc(-c2ccc(CNc3ccc(C4CCCCC4)cc3)cc2)cs1 [Example 1-17]	206 to 210 °C
CCCC(CCC)c1ccc(N(Cc2ccc3nc(-c4csc(CN(CC(=O)O)Cc5nc(C(C)(C)C)cs5)n4)oc3c2)C(C)C)cc1 [Example 1-138]	98 to 100 °C
CCC(C)(C)c1ccc(OCc2ccc(-c3csc(N(C)Cc4ccc(C(=O)O)cc4)n3)cc2)cc1 [Example 1-38]	155 to 157 °C
CCCC(CCC)c1ccc(OCc2ccc(-c3csc(CN(C)c4cccc(C(=O)O)n4)n3)cc2)cc1 [Example 1-143]	123 to 125 °C
CCCC(CCC)N(Cc1ccc(-c2csc(COc3cccc(C(=O)O)c3)n2)cc1)c1ccc(C(C)C)cc1 [Example 1-10]	127 to 129 °C
CCCC(CCC)c1ccc(N(Cc2ccc(-c3csc(COc4cc(C(=O)O)ccc4NC(=O)C(C)C)n3)cc2)C(C)C)cc1 [Example 1-113]	166 to 168 °C
CCCC(CCC)N(Cc1ccc(-c2csc(COc3ccc(C(=O)O)cc3)n2)cc1)c1ccc(C(C)C)cc1 [Example 1-9]	166 to 168 °C
CCCC(CCC)c1ccc(COc2ccc(-c3csc(CN4CCC(c5ccccc5C(=O)O)CC4)n3)cc2)cc1 [Example 1-164]	170 to 172 °C
CCCC(CCC)c1ccc(N(Cc2ccc(-c3csc(COc4cncc(C(=O)O)c4)n3)cc2)C(C)C)cc1.[Na+] [Example 1-68]	185 °C (dec.)
CC(C)CN(Cc1ccc(-c2csc(CN(CC(=O)O)C(=O)Nc3ccccc3)n2)cc1)c1ccc(C(C)(C)C)cc1 [Example 1-27]	119 °C
CCCC(CCC)c1ccc(OCc2ccc(-c3csc(CN(C)S(=O)(=O)CCCC(=O)O)n3)cc2)cc1 [Example 1-51]	103.3 to 106.3 °C

More lines, now with the values ahead:

melting point	Compound
136 to 138 °C	CCC(CC)c1ccc(COc2ccc(-c3csc(CN(CC(=O)O)Cc4ccc(C(F)(F)F)cc4)n3)cc2)cc1 [Example 3-16]
198 to 200 °C	O=C(O)CN(CC1CCCCC1)c1nc(-c2nc3ccc(OCc4ccc(Cl)c(Cl)c4)cc3o2)cs1 [Example 3-110]
154 to 157 °C	CCC(CC)c1ccc(COc2ccc(-c3csc(CN(CC(=O)O)Cc4ccc(Cl)cc4)n3)cc2)cc1 [Example 3-17]
92 to 98 °C	CCC(CC)c1ccc(N(Cc2ccc(-c3ccc(CN(CC(=O)O)Cc4nc(C(C)(C)C)cs4)s3)cc2)C(C)C)cc1 [Example 4-19]
162 to 164 °C	CN(Cc1nc(-c2ccc(N(C)Cc3ccc(C4CCCCC4)cc3)cc2)cs1)C(=O)c1ccc(C(=O)O)cc1 [Example 3-107]
152 °C	CCC(CC)c1ccc(N(Cc2ccc(-c3ccc(CN4Cc5ccccc5C[C@H]4C(=O)O)s3)cc2)C(C)C)cc1 [Example 4-28]
98 to 103 °C	CCCC(CCC)c1ccc(COc2ccc(-c3csc(CN(CC(=O)O)Cc4csc(C)n4)n3)c(C)c2)cc1 [Example 3-122]
233 to 235 °C	CC(C)CCC1(C(=O)O)CCN(Cc2nc(-c3ccc(N(C)Cc4ccc(C5CCCCC5)cc4)cc3)cs2)CC1 [Example 3-68]
151 to 155 °C (dec.)	CCCC(CCC)c1ccc(OCc2ccc(-c3csc(COc4cncc(C(=O)O)c4)c3)cc2)cc1.O=S(=O)(O)O [Example 4-48]
132 to 135 °C	CCCC(CCC)c1ccc(CN2CCCc3cc(-c4csc(CN(CC(=O)O)Cc5nc(C(C)(C)C)cs5)n4)ccc32)cc1 [Example 3-125]
153 to 156 °C	CCCC(CCC)c1ccc(OCc2ccc(-c3ccc(C(=O)N(CC(=O)O)Cc4cccnc4)s3)cc2)cc1 [Example 4-47]
160 to 164 °C	CCC(CC)c1ccc(N(Cc2ccc(-c3ccc(COc4cncc(C(=O)O)c4)s3)cc2)C(C)C)cc1 [Example 4-17]
138 to 139 °C	CC(C)Cc1ccc(CN(C)c2ccc(-c3csc(CN(C)C(Cc4ccccc4)C(=O)O)n3)cc2)cc1 (stereo not drawn) [Example 3-85]
142 to 146 °C	CCC(CC)c1ccc(N(Cc2ccc(-c3ccc(CN(CC(=O)O)Cc4nc5ccccc5[nH]4)s3)cc2)C(C)C)cc1 [Example 4-21]
156 °C	CCCC(CCC)c1ccc(N(Cc2ccc(-c3csc(COc4cncc(C(=O)O)c4)c3)cc2)C(C)C)cc1 [Example 4-3]
74 to 78 °C	CCN(Cc1ccc(C(C)C)cc1)c1ccc(-c2csc(CN(CC(=O)O)Cc3ccc(C(C)C)cc3)n2)cc1 [Example 3-44]
155 to 156 °C	CCCC(CCC)c1ccc(COc2ccc(-c3csc(CN(CC(=O)O)Cc4ccccn4)n3)cc2)cc1 [Example 3-19]

melting point	Compound
132 to 134 °C	CN(Cc1ccccc1)c1ccc(-c2csc(CN(CC(=O)O)Cc3ccccc3Cl)n2)cc1 [Example 3-50]
241 to 243 °C	CCCC(CCC)c1ccc(COc2ccc(-c3csc(CN4CCN(c5ccc(C(=O)O)cc5)CC4)n3)cc2)cc1 [Example 3-127]
176 to 182 °C	CCCC(CCC)c1ccc(OCc2ccc(-c3csc(CN(CCC(C)C)CC(=O)O)c3)cc2)cc1 [Example 4-71]
171 to 173 °C	CN(Cc1ccc(CC(C)(C)C)cc1)c1ccc(-c2csc(CN(C)C(C(=O)O)c3ccccc3)n2)cc1 (stereo not drawn) [Example 3-88]
186 to 188 °C	CN(Cc1ccccc1)c1ccc(-c2csc(CN(CC(=O)O)C(=O)Cc3csc4ccccc34)n2)cc1 [Example 3-56]
144 to 150 °C	CCCC(CCC)c1ccc(N(Cc2ccc(-c3ccc(CN(CC(=O)O)Cc4nc5ccccc5[nH]4)s3)cc2)C(C)C)cc1 [Example 4-22]
144 to 146 °C	CCC(CC)c1ccc(COc2ccc(-c3csc(CN(CC(=O)O)Cc4ccccc4)n3)cc2)cc1 [Example 3-11]
156 to 157 °C	CCC(CC)c1ccc(COc2ccc(-c3csc(CN(CC(=O)O)Cc4ccccn4)n3)cc2)cc1 [Example 3-20]
103 to 104 °C	CCCC(CCC)c1ccc(COc2ccc(-c3csc(CN(CC(=O)O)Cc4cscn4)n3)c(C)c2)cc1 [Example 3-121]
138 to 139 °C	CCC(CC)c1ccc2nc(-c3csc(COc4ccc(C(=O)O)cc4)n3)n(Cc3ccc(C(C)=O)cc3)c2c1 [Example 3-131]
202 to 203 °C	CN(Cc1ccc(C2CCCCC2)cc1)c1ccc(-c2csc(CNS(=O)(=O)c3ccc(C(=O)O)cc3)n2)cc1 [Example 3-97]
164 to 166 °C	CN(Cc1ccc(C2CCCCC2)cc1)c1ccc(-c2csc(CN(C)S(=O)(=O)c3cccc(C(=O)O)c3)n2)cc1 [Example 3-101]
168 to 170 °C	CC(C)Cc1ccc(CN(C)c2ccc(-c3csc(CN4Cc5ccccc5CC4C(=O)O)n3)cc2)cc1 (stereo not drawn) [Example 3-72]
199 to 204 °C	CC(C)Cc1ccc(CN(C)c2ccc(-c3csc(CNC(Cc4ccc(Cl)cc4)C(=O)O)n3)cc2)cc1 (stereo not drawn) [Example 3-79]
143 °C	CN(Cc1ccc(SCC(C)(C)C)cc1)c1ccc(-c2csc(CN(CC(=O)O)Cc3ccccc3)n2)cc1 [Example 3-41]
164 to 166 °C	CCCC(CCC)c1ccc(OCc2ccc(-c3csc(CN(CC(=O)O)CC(=O)Nc4ccc(C(C)C)cc4)c3)cc2)cc1 [Example 4-27]

From patent US20060122181A1, “Heteroaromatic pentacyclic compound and medicinal use thereof” (Japan Tobacco Inc., priority 2003, published 2006)
